Source: patent US9079913B2, “Spiro-oxindole MDM2 antagonists” (The Regents of the University of Michigan, priority 2009, dated 2015)
Like-named read-outs stand apart in the source and are kept apart here.

Assays:
[1] = test system: Isogenic HCT-116 colon cancer cell lines; test: cells; assay type: cell-based; details: Homo sapiens;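 note: cells grown in 96-well plates in McCoy's 5A medium with 10% FBS, exposed to compound for 4 days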
Experimental: Cells were seeded in 96-well flat bottom cell culture plates at a density of 2−3×10^3 cells/well with compounds and incubated for 4 days.

[2] = test system: cancer cell lines with wild-type p53 / mutated or deleted p53 (ATCC); test: Cell growth assay (WST-8), other cancer cell lines; assay type: cell-based; details: Homo sapiens
[3] = target: recombinant human His-tagged MDM2 protein (residues 1-118) (Homo sapiens (Human), UniProt Q00987); test: Fluorescence-polarization MDM2 binding assay;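 note: fluorescence polarization read after three hours of incubation in potassium phosphate buffer containing bovine gamma globulin and Triton X-100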
Experimental: The assay was performed in the buffer: 100 mM potassium phosphate, pH 7.5; 100 μg/mL bovine gamma globulin; 0.02% sodium azide, 0.01% Triton X-100) and the polarization values were measured after 3 h of incubation using an ULTRA READER (Tecan U.S. Inc., Research Triangle Park, N.C.). […] The Kd value was calculated using the equation: Kd value=IC50−L0/2.
The polarization values were measured after 3 h of incubation. […] Curve fitting was performed using [sequence] PRISM software (GraphPad Software, Inc., San Diego, Calif.). […] Compounds shown in Tables 19A-D as the free base were tested either as the free base or as the CF3CO2H (TFA) or HCl salt.

[4] = HCT-116, read-out: Cell growth inhibition using WST assay, HCT116 p53KO IC50, Table 19C, HCT116 p53KO
[5] = HCT-116, read-out: Cell growth inhibition using WST assay, HCT116 p53WT IC50, Table 19C, HCT116 p53WT
[6] = LNCaP, Table 19C, LNCaP cells, read-out: Cell growth inhibition using WST assay, LNCaP IC50
[7] = PC-3, Table 19C, PC3 cells, read-out: Cell growth inhibition using WST assay, PC3 IC50
[8] = Table 19C, read-out: Bidning affinities to MDM2 as determined using FP assay IC50
[9] = HCT-116, read-out: HCT-116 (p53-/-) IC50, Table 19A, HCT-116 p53-/-, cell growth
[10] = HCT-116, read-out: HCT-116 (p53 wild-type) IC50, Table 19A, HCT-116 p53 wild-type, cell growth
[11] = LNCaP, Table 19A, LNCAP cells, p53 wild-type, cell growth, read-out: LNCAP (p53 wild-type) IC50
[12] = PC-3, Table 19A, PC-3 cells, deleted p53, cell growth, read-out: PC-3 (deleted p53) IC50
[13] = SJSA-1, Table 19A, SJSA-1 cells, p53 wild-type, cell growth, read-out: SJSA-1 (p53 wild-type) IC50
[14] = Table 19A, FP binding assay, read-out: MDM2 IC50
[15] = HCT-116, read-out: Inhibition of cell growth IC50, HCT116 p53 KO, Table 19B, HCT116 p53 KO
[16] = HCT-116, read-out: Inhibition of cell growth IC50, HCT116 p53 WT, Table 19B, HCT116 p53 WT
[17] = LNCaP, Table 19B, LNCaP cells, read-out: Inhibition of cell growth IC50, LNCaP
[18] = PC-3, Table 19B, PC3 cells, read-out: Inhibition of cell growth IC50, PC3
[19] = Table 19B, read-out: Binding affinities to MDM2 protein as determined by FP based assay IC50

recombinant human His-tagged MDM2 protein (residues 1-118), sequence (Q00987 1-118): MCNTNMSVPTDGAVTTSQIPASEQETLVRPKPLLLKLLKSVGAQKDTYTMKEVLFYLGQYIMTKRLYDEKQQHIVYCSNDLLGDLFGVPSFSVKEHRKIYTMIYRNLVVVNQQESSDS

SMILES	IC50 [1, 9]	IC50 [1, 10]	IC50 [2, 11]	IC50 [2, 12]	IC50 [2, 13]	IC50 [3, 14]	IC50 [1, 15]	IC50 [1, 16]	IC50 [2, 17]	IC50 [2, 18]	IC50 [3, 19]	other results
O=C(NCC[C@H](O)CO)[C@@H]1N[C@H](CC2(CCO)CCCC2)[C@]2(C(=O)Nc3cc(Cl)c(F)cc32)[C@H]1c1cccc(Cl)c1 [MI-319-37]												IC50 [1, 4]: > 30 µM; IC50 [1, 5]: < 10 µM; IC50 [2, 6]: < 5 µM; IC50 [2, 7]: > 30 µM; IC50 [3, 8]: < 1 µM
CC(C)(C)C[C@H]1N[C@@H](C(=O)NCC[C@](C)(O)CO)[C@H](c2cccc(Cl)c2F)[C@@]12C(=O)Nc1cc(Cl)ccc12 [MI-789]	> 10 µM	< 3 µM	< 3 µM	> 10 µM	< 3 µM	< 3 µM						
CCCC(C)(C)C[C@H]1N[C@@H](C(=O)NCC[C@H](O)CO)[C@H](c2cccc(Cl)c2)[C@@]12C(=O)Nc1cc(Cl)c(F)cc12 [MI-729]							8.9 ± 0.1 µM	0.8 ± 0.2 µM	1 µM	6.1 ± 1.6 µM	< 1 µM	
CN1[C@@H](C(=O)NCC[C@H](O)CO)[C@H](c2cccc(Cl)c2)[C@@]2(C(=O)Nc3cc(Cl)c(F)cc32)[C@H]1CCC1CCCC1 [MI-713]							4.3 ± 0.7 µM	4.9 ± 1.4 µM	2.7 ± 0.7 µM	6.1 ± 2.1 µM	< 10 µM	
CN1[C@@H](C(=O)NCC[C@H](O)CO)[C@H](c2cccc(Cl)c2)[C@@]2(C(=O)Nc3cc(F)ccc32)[C@H]1CC(C)(C)C [MI-519-15-me]												IC50 ([1]; HCT-116, read-out: HCT116p53KO IC50, Table 19D, HCT116 p53KO): > 10 µM; IC50 ([1]; HCT-116, read-out: HCT116p53WT IC50, Table 19D, HCT116 p53WT): 5.2 µM; IC50 ([2]; LNCaP, Table 19D, LNCaP cells, read-out: LNCaP IC50): 6.4 µM; IC50 ([2]; PC-3, Table 19D, PC3 cells, read-out: PC3 IC50): > 10 µM; IC50 ([3]; Table 19D, read-out: MDM2 Binding Affinities IC50): < 5 µM
CC(C)CC(C)(C)C[C@H]1N[C@@H](C(=O)NCC[C@H](O)CO)[C@H](c2cccc(Cl)c2)[C@@]12C(=O)Nc1cc(Cl)c(F)cc12 [MI-725]							5.8 ± 2.9 µM	0.7 µM	0.8 ± 0.1 µM	4.7 ± 1 µM	< 1 µM	
CC(C)CC(C)(C)C[C@H]1N(C)[C@@H](C(=O)NCC[C@H](O)CO)[C@H](c2cccc(Cl)c2)[C@@]12C(=O)Nc1cc(Cl)c(F)cc12 [MI-726]							8 ± 0.8 µM	2.3 ± 0.8 µM	2.3 ± 0.3 µM	5.1 ± 1.4 µM	< 5 µM	
CC(C)(C)C[C@H]1N[C@@H](C(=O)NC2CCC(OC(=O)C(C)(C)N)CC2)[C@H](c2cccc(Cl)c2F)[C@@]12C(=O)Nc1cc(Cl)ccc12 (stereo partly drawn) [MI-907]	7 µM	< 3 µM	< 3 µM	3 µM	< 3 µM	< 1 µM						
CCCCNC(=O)N1CC(NC(=O)[C@@H]2N[C@H](CC(C)(C)C)[C@]3(C(=O)Nc4cc(Cl)ccc43)[C@H]2c2cccc(Cl)c2F)C1 [MI-916]	> 5 µM	< 3 µM	< 3 µM	> 5 µM	< 5 µM	< 0.1 µM						
CC(C)CC(C)(C)C[C@H]1N[C@@H](C(=O)NCC[C@H](O)CO)[C@H](c2cccc(Cl)c2)[C@@]12C(=O)Nc1cc(F)c(F)cc12 [MI-735]							8.5 ± 1.1 µM	1.2 ± 0.3 µM	1.1 ± 0.4 µM	8.6 ± 0.9 µM	< 1 µM	
CC(C)(CCO)C[C@H]1N[C@@H](C(=O)NCC[C@H](O)CO)[C@H](c2cccc(Cl)c2)[C@@]12C(=O)Nc1cc(Cl)c(F)cc12 [MI-319-36]												IC50 [1, 4]: > 30 µM; IC50 [1, 5]: 12.2 ± 1.7 µM; IC50 [2, 6]: 6.4 ± 1.4 µM; IC50 [2, 7]: > 30 µM; IC50 [3, 8]: < 5 µM
CC(C)(C)C[C@H]1N[C@@H](C(=O)NCC[C@@](C)(O)CO)[C@H](c2cccc(Cl)c2F)[C@@]12C(=O)Nc1cc(Cl)ccc12 [MI-790]	> 10 µM	< 3 µM	< 3 µM	> 10 µM	< 3 µM	< 3 µM						
CN1[C@@H](C(=O)NCC[C@H](O)CO)[C@H](c2cccc(Cl)c2)[C@@]2(C(=O)Nc3cc(Cl)c(F)cc32)[C@H]1CCCc1cccs1 [MI-711]							6.3 ± 2.9 µM	8.6 ± 1.2 µM	4.8 ± 1.1 µM	9.3 ± 2.5 µM	> 5 µM	
